Values quoted from earlier work, collected in article PMC9199201, “Biomimetic and temporal-controlled nanocarriers with ileum transporter targeting for achieving oral administration of chemotherapeutic drugs” (Journal of Nanobiotechnology, 2022).

Parameters: method as in PMID 23220325

Oral bioavailability: less than 1%
Compound: CC(=O)O[C@H]1C(=O)[C@@]2(C)[C@H]([C@H](OC(=O)c3ccccc3)[C@]3(O)C[C@H](OC(=O)[C@H](O)[C@@H](NC(=O)c4ccccc4)c4ccccc4)C(C)=C1C3(C)C)[C@]1(OC(C)=O)CO[C@@H]1C[C@@H]2O [PTX, paclitaxel]
